In paper PMC6895048, “4,5-Disubstituted 1,2,3-triazoles: Effective Inhibition of Indoleamine 2,3-Dioxygenase 1 Enzyme Regulates T cell Activity and Mitigates Tumor Growth” (Scientific Reports, 2019):

Legend:
[1] = system: IDO1; settings: cited from earlier work
[2] = target: T1, purified human TDO enzyme (Homo sapiens, UniProt P48775); assay: TDO inhibition assay by the spectrometric method; type: biochemical; settings: spectrophotometric
T1 construct: 6xHis (N); made in house; host or cells: Escherichia coli BL21 (DE3) (pET 28a vector)
T1 sequence (P48775 whole entry): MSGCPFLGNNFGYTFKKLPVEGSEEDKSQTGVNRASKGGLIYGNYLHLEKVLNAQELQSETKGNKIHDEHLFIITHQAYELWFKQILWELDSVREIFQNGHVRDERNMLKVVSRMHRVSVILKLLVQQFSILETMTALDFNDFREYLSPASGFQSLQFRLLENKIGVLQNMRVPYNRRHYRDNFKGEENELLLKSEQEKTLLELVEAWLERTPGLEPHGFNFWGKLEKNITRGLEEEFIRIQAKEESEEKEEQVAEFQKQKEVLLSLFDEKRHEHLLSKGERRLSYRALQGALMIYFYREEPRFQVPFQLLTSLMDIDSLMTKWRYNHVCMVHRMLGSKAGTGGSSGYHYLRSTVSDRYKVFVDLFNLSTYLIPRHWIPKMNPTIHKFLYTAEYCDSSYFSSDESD
Protocol: Both IDO1 and TDO inhibition assays were performed according to the reported procedures[26]–[30],[50],[51]. The solubility of the compounds in water was either moderate or poor. […] In the assay system, the minimum and maximum amount of DMSO was 0.02% and 2%, respectively. The standard reaction mixture (500 μL) containing KPB (100 mM, pH 6.5 for IDO1 enzyme and 50 mM, pH 8.0 for TDO enzyme), sodium ascorbate (20 mM), methylene blue (10 µM), catalase (240 nM, from bovine liver), L-Trp (150 µM), purified enzyme (40 nM for IDO1 and 25 nM for TDO), DMSO (0.05%, v/v), Triton-X 100 (0.01%, v/v) and inhibitors was incubated at 37 °C for 1 hour. The concentration of the inhibitors was varied from 100 µM to 32 nM by serial dilution technique. Then, the reaction was quenched with 100 µL of 30% (w/v) trichloroacetic acid and was incubated for further 15 minutes at 65 °C. After that, 2% (w/v) pDMAB was used to quantify the amount of kynurenine formation. The absorbance of the reaction mixture was recorded by UV-Vis spectrophotometer at 480 nm. The Km = 59.76 µM and Kcat = 6.18 sec^−1.

[3] = target: T2, IDO1 (Homo sapiens, UniProt P14902); assay: Kynurenine assay by HPLC analysis, IDO1; type: biochemical; design: made in house; host or cells: Escherichia coli M15 (pQE30 vector with pREP4 plasmid); settings: for IC50: HPLC based IDO1 inhibition assay
T2 sequence (P14902 whole entry): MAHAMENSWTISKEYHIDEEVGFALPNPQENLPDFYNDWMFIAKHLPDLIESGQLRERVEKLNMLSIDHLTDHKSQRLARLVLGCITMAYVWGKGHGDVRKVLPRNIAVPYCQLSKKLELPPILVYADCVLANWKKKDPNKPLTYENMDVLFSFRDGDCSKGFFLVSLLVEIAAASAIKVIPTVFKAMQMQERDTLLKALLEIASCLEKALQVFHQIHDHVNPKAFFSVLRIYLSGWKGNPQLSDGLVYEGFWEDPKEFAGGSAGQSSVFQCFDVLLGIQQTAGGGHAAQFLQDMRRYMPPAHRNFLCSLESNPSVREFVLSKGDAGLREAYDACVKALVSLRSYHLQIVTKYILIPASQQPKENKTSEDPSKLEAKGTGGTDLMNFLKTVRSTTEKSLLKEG
Protocol: (§1) HPLC based IDO1, and TDO inhibition assays were performed according to the earlier reported procedure[19],[27]–[30]. The reaction mixture (250 µL) contained KPB (100 mM, pH 6.5 for IDO1 and 50 mM, pH 8.0 for TDO), sodium ascorbate (20 mM), methylene blue (10 µM), catalase (240 nM, from bovine liver, Sigma), L-Trp (150 µM), purified enzyme (40 nM for IDO1 and 25 nM for TDO), DMSO (0.05%, v/v), Triton-X 100 (0.01%, v/v) and inhibitors. The concentration of the compound was varied from 100 µM to 32 nM by serial dilution. The mixture was incubated at 37 °C for 1 hour in the absence and presence of the synthesized compounds. The reaction was then quenched using 50 µL of 30% (w/v) trichloroacetic acid and incubated at 65 °C for additional 15 minutes to allow complete hydrolysis of N-formylkynurenine to kynurenine. After that, the mixture was centrifuged at 10,000 rpm for 10 minutes, and 100 µL of clear solution was transferred to another tube for HPLC analysis. Then, 20 µL of the reaction mixture was then injected through Ascentis® express C18, 2.7 µm HPLC column with a flow rate of 0.5 mL/minute of the mobile phase containing 50% sodium citrate buffer (40 mM, pH 2.25) and 50% methanol (v/v) with 400 µM SDS. The area under the curve at 365 nm chromatogram corresponding to the kynurenine formation was recorded, and % of inhibition was calculated using standard curve prepared with pure kynurenine (from Sigma) under similar experimental conditions.

[4] = target: T3, purified human IDO1 enzyme (Homo sapiens, UniProt P14902); assay: IDO1 inhibition assay by the spectrometric method (pDMAB); type: biochemical; settings: for IC50: purified human IDO1, spectrophotometric, mean of three independent assays, read-out: hIDO1 IC50
T3 construct: made in house; host or cells: Escherichia coli M15 (pQE30 vector with pREP4 plasmid)
T3 sequence (P14902 whole entry): as above
Protocol: Both IDO1 and TDO inhibition assays were performed according to the reported procedures[26]–[30],[50],[51]. […] In the assay system, the minimum and maximum amount of DMSO was 0.02% and 2%, respectively. […] The concentration of the inhibitors was varied from 100 µM to 32 nM by serial dilution technique. Then, the reaction was quenched with 100 µL of 30% (w/v) trichloroacetic acid and was incubated for further 15 minutes at 65 °C. After that, 2% (w/v) pDMAB was used to quantify the amount of kynurenine formation. The absorbance of the reaction mixture was recorded by UV-Vis spectrophotometer at 480 nm.

[5] = target: T2, IDO1; assay: Cellular IDO1 activity assay in IFN-γ induced MDA-MB-231 cells; type: cell-based; design: induce the expression of the native IDO1 enzyme from its mRNA in the MDA-MB-231 cells; endogenous in cells; host or cells: MDA-MB-231 cells induced with human IFN-γ (50 ng/mL); settings: IDO1 expression induced by human IFN-γ (50 ng/mL); mean of three
Protocol: The cellular enzyme activity assay was performed according to the reported procedure with minor modifications[19],[27]–[30],[33],[54]. Briefly, MDA-MB-231 breast cancer cells were selected for this assay because of the presence of IDO1 mRNA in this cell line. First, cells were grown in DMEM/F12 complete media overnight. Then different concentration of human interferon-gamma (IFN-γ) (from 5–1000 ng/mL) was added to it and incubated for 48 hours. This treatment is reported to allow over-expression of IDO1 enzyme in MDA-MB-231 cells. […] Sterile cell-culture grade PBS was used to wash the cells by centrifugation technique. Then, the pellet was lysed in 10 mM HEPES buffer by passing through a sterile syringe. The lysate was used for standard IDO1 assay as mentioned earlier. The relative amount of N-formylkynurenine generated in the presence of the different concentration of IFN-γ was used to optimize the required concentration of IFN-γ for the IDO1 inhibition assay. […] Cells stimulated with IFN-γ alone were used as negative control, while cells stimulated with L-Trp without compound served as positive control. The cells were washed with sterile cell culture grade PBS and lysed in 10 mM HEPES buffer by sterile syringe. The lysate was used for standard IDO1 assay, as mentioned earlier, and the extent of IDO1 enzyme inhibition was determined for the selected compounds.

[6] = target: T4, TDO enzyme (Homo sapiens, UniProt P48775); assay: HPLC based TDO inhibition assay; type: biochemical
T4 construct: 6xHis (N); made in house; host or cells: Escherichia coli BL21 (DE3) (pET 28a vector)
T4 sequence (P48775 whole entry): as the sequence (P48775 whole entry) above
Protocol: as §1

CCc1ccccc1Nc1cnn[nH]1 [N-(2-Ethylphenyl)-1H-1,2,3-triazol-5-amine]
cellular IDO1 inhibitory activities [1]: nanomolar-level

NS(=O)(=O)NCCNC(=O)c1n[nH]nc1-c1ccc(Cl)c(Cl)c1 [Compound 4l, 5-(3,4-dichlorophenyl)-N-(2-(sulfamoylamino)ethyl)-2H-1,2,3-triazole-4-carboxamide]
inhibition at 0.032 µM ([2]; 32 nM): 3%
inhibition at 0.16 µM ([2]; 160 nM): 10%
inhibition at 0.8 µM ([2]; 800 nM): 11%
inhibition at 4 µM ([2]; 4 µM): 19%
inhibition at 20 µM ([2]; 20 µM): 25%
inhibition at 100 µM ([2]; 100 µM): 26%
IC50 [3]: 98 ± 7 nM
inhibition at 0.032 µM ([3]; HPLC, 32 nM): 33%
inhibition at 0.16 µM ([3]; HPLC, 160 nM): 57%
inhibition at 0.8 µM ([3]; HPLC, 800 nM): 65%
inhibition at 4 µM ([3]; HPLC, 4 µM): 88%
inhibition at 20 µM ([3]; HPLC, 20 µM): 93%
inhibition at 100 µM ([3]; HPLC, 100 µM): 94%
inhibition at 4 µM ([4]; 4 μM compound): 71 to 86%
inhibition at 100 µM ([4]; 100 μM compound): 82 to 93%
IC50 [4]: 93 ± 9 nM
EC50 [5]: 83 ± 5 nM
inhibition at 0.032 µM ([6]; 32 nM): 14%
inhibition at 0.16 µM ([6]; 160 nM): 15%
inhibition at 0.8 µM ([6]; 800 nM): 22%
inhibition at 4 µM ([6]; 4 µM): 29%
inhibition at 20 µM ([6]; 20 µM): 38%
inhibition at 100 µM ([6]; 100 µM): 55%

CCOC(=O)c1n[nH]nc1-c1ccc(Cl)c(Cl)c1 [Compound 2j]
% of Enzyme inhibition (TDO) ([2]; 32 nM): 8%
% of Enzyme inhibition (TDO) ([2]; 160 nM): 12%
% of Enzyme inhibition (TDO) ([2]; 800 nM): 25%
% of Enzyme inhibition (TDO) ([2]; 4 µM): 30%
% of Enzyme inhibition (TDO) ([2]; 20 µM): 44%
% of Enzyme inhibition (TDO) ([2]; 100 µM): 53%
IC50 [3]: 257 ± 9 nM
% Of inhibition for IDO1 enzyme ([3]; HPLC, 32 nM): 24%
% Of inhibition for IDO1 enzyme ([3]; HPLC, 160 nM): 31%
% Of inhibition for IDO1 enzyme ([3]; HPLC, 800 nM): 52%
% Of inhibition for IDO1 enzyme ([3]; HPLC, 4 µM): 65%
% Of inhibition for IDO1 enzyme ([3]; HPLC, 20 µM): 77%
% Of inhibition for IDO1 enzyme ([3]; HPLC, 100 µM): 77%
IC50 [4]: 163 ± 25 nM
EC50 [5]: 160 ± 7 nM
% Of inhibition for TDO enzyme ([6]; 32 nM): 1%
% Of inhibition for TDO enzyme ([6]; 160 nM): 35%
% Of inhibition for TDO enzyme ([6]; 800 nM): 36%
% Of inhibition for TDO enzyme ([6]; 4 µM): 49%
% Of inhibition for TDO enzyme ([6]; 20 µM): 41%
% Of inhibition for TDO enzyme ([6]; 100 µM): 43%
